Read-outs that look alike come from different tables or passages of the source.
Test system: SARS-CoV-2-specific CD4+ T cells (OX40+CD137+) in PBMC
Type: cell-based, human
[1] = CD4+ T cell epitopes identified by AIM assay, share of donors responding
[2] = CD4+ T cell epitopes identified by AIM assay, sum of response per responding donor
[3] = CD4+ T cell epitopes identified by AIM assay, total response
[4] = CD4+ T cell epitopes identified by AIM assay, percent of tested donors responding
[5] = CD4+ T cell epitopes identified by AIM assay, total response summed over donors

Row | Sequence | Frequency of response (%) [1] | Magnitude by # of responding donors [2] | Sum of response [3] | Frequency of response (%) | Magnitude by # of responding donors | Sum of response | Frequency of response (%) [4] | Sum of response [5]
1 | PNFSKLINIIIWFLL | 8% | 3802 | 3802 | – | – | – | – | –
2 | YRINWITGGIAIAMA | 58% | 345 | 2417 | – | – | – | – | –
3 | IQWMVMFTPLVPFWI | 8% | 603 | 603 | – | – | – | – | –
4 | TFTRSTNSRIKASMP | 8% | 120 | 120 | – | – | – | – | –
5 | VSSQCVNLTTRTQLP | 8% | 274 | 274 | – | – | – | – | –
6 | HWFVTQRNFYEPQII | 7% | 598 | 598 | – | – | – | – | –
7 | TLRVEAFEYYHTTDP | 18% | 318 | 635 | – | – | – | – | –
8 | FIASFRLFARTRSMW | 8% | 353 | 353 | – | – | – | – | –
9 | MFTPLVPFWITIAYI | 8% | 602 | 602 | – | – | – | – | –
10 | PVYSFLPGVYSVIYL | 8% | 650 | 650 | – | – | – | – | –
11 | CLVGLMWLSYFIASF | – | – | – | 33% | 295 | 1181 | – | –
12 | PRPPLNRNYVFTGYR | 8% | 101 | 101 | – | – | – | – | –
13 | IQYIDIGNYTVSCLP | 9% | 1805 | 1805 | – | – | – | – | –
14 | VNNSYECDIPIGAGI | 11% | 398 | 398 | – | – | – | – | –
15 | SLQSCTQHQPYVVDD | 9% | 1222 | 1222 | – | – | – | – | –
16 | AVTANVNALLSTDGN | 7% | 201 | 201 | – | – | – | – | –
17 | AGNGGDAALALLLLD | – | – | – | 21% | 416 | 1249 | – | –
18 | FNCYFPLQSYGFQPT | 8% | 130 | 130 | – | – | – | – | –
19 | LTQYNRYLALYNKYK | 8% | 638 | 638 | – | – | – | – | –
20 | PCPIHFYSKWYIRVG | – | – | – | 55% | 491 | 2948 | – | –
21 | ASAFFGMSRIGMEVT | 8% | 337 | 337 | – | – | – | – | –
22 | TRFQTLLALHRSYLT | – | 2172 | – | – | – | – | 18% | 4343
23 | LVYFLQSINFVRIIM [SEQ ID NO 251] | – | 218 | – | – | – | – | 7% | 218
24 | CEFQFCNDPFLGVYY | – | 359 | – | – | – | – | 27% | 1077
25 | LGDIAARDLICAQKF | 8% | 153 | 153 | – | – | – | – | –
26 | YLTFYLTNDVSFLAH | 17% | 358 | 715 | – | – | – | – | –

Row | Sequence | Frequency of response (%) [1] | Magnitude by # of responding donors [2] | Sum of response [3] | Frequency of response (%) | Magnitude by # of responding donors | Sum of response | Frequency of response (%) [4] | Sum of response [5]
27 | SFLGRYMSALNHTKK | 9% | 219 | 219 | – | – | – | – | –
28 | FLGIITTVAAFHQEC [SEQ ID NO 254] | – | 185 | – | – | – | – | 9% | 185
29 | RPLLESELVIGAVIL | 8% | 183 | 183 | – | – | – | – | –
30 | GMEVTPSGTWLTYTG | 8% | 380 | 380 | – | – | – | – | –
31 | FGLVAEWFLAYILFT | 8% | 219 | 219 | – | – | – | – | –
32 | LPPLLTDEMIAQYTS | 9% | 153 | 153 | – | – | – | – | –
33 | QMAYRFNGIGVTQNV | 7% | 160 | 160 | – | – | – | – | –
34 | SEMVMCGGSLYVKPG | 6% | 217 | 217 | – | – | – | – | –
35 | SASFSTFKCYGVSPT | 8% | 294 | 294 | – | – | – | – | –
36 | LLEQWNLVIGFLFLT | 13% | 122 | 243 | – | – | – | – | –
37 | LYIIKLIFLWLLWPV | 13% | 199 | 397 | – | – | – | – | –
38 | LLWPVTLACFVLAAV | 17% | 260 | 520 | – | – | – | – | –
39 | IPFAMQMAYRFNGIG | 18% | 187 | 373 | – | – | – | – | –
40 | LPFFSNVTWFHAIHV | 9% | 156 | 156 | – | – | – | – | –
41 | WNSNNLDSKVGGNYN | 9% | 101 | 101 | – | – | – | – | –
42 | MKDLSPRWYFYYLGT | 14% | 2536 | 5072 | – | – | – | – | –
43 | TDTGVEHVTFFIYNK | 7% | 118 | 118 | – | – | – | – | –
44 | ELHLSWEVGKPRPPL | 8% | 103 | 103 | – | – | – | – | –
45 | LTYTGAIKLDDKDPN | 17% | 742 | 1484 | – | – | – | – | –
46 | YADSFVIRGDEVRQI | 8% | 160 | 160 | – | – | – | – | –
47 | SDVLYQPPQTSITSA | 8% | 394 | 394 | – | – | – | – | –
48 | SGFAAYSRYRIGNYK | – | – | – | 31% | 185 | 739 | – | –
49 | AQYTSALLAGTITSG | – | 336 | – | – | – | – | 9% | 336
50 | VRIIMRLWLCWKCRS | 14% | 131 | 261 | – | – | – | – | –
51 | CCHLAKALNDFSNSG | 8% | 111 | 111 | – | – | – | – | –
52 | LPNDDTLRVEAFEYY | 9% | 162 | 162 | – | – | – | – | –

Row | Sequence | Frequency of response (%) [1] | Magnitude by # of responding donors [2] | Sum of response [3] | Frequency of response (%) | Magnitude by # of responding donors | Sum of response | Frequency of response (%) [4] | Sum of response [5]
53 | LYLYALVYFLQSINF | 21% | 124 | 371 | – | – | – | – | –
54 | EIYQAGSTPCNGVEG | 8% | 1121 | 1121 | – | – | – | – | –
55 | YSRYRIGNYKLNTDH | 15% | 276 | 551 | – | – | – | – | –
56 | NTVKSVGKFCLEASF | 8% | 113 | 113 | – | – | – | – | –
57 | YIRVGARKSAPLIEL [SEQ ID NO 256] | – | 366 | – | – | – | – | 18% | 731
58 | FVSGNCDVVIGIVNN | 7% | 180 | 180 | – | – | – | – | –
59 | DDQIGYYRRATRRIR [SEQ ID NO 245] | 23% | 268 | 803 | – | – | – | – | –
60 | FLHFLPRVFSAVGNI | 9% | 491 | 491 | – | – | – | – | –
61 | KHFYWFFSNYLKRRV [SEQ ID NO 244] | 8% | 959 | 959 | – | – | – | – | –
62 | NPVLPFNDGVYFAST | 9% | 413 | 413 | – | – | – | – | –
63 | MWLSYFIASFRLFAR | 25% | 343 | 1030 | – | – | – | – | –
64 | TQLNRALTGIAVEQD | – | 260 | – | – | – | – | 8% | 260
65 | QFAYANRNRFLYIIK | 20% | 326 | 978 | – | – | – | – | –
66 | VFAQVKQIYKTPPIK | – | 268 | – | – | – | – | 8% | 268
67 | CAQKFNGLTVLPPLL | – | 741 | – | – | – | – | 9% | 741
68 | EFVFKNIDGYFKIYS | 18% | 336 | 672 | – | – | – | – | –
69 | WDLTAFGLVAEWFLA | 8% | 134 | 134 | – | – | – | – | –
70 | DSKTQSLLIVNNATN | 9% | 108 | 108 | – | – | – | – | –
71 | KNTQEVFAQVKQIYK | 8% | 125 | 125 | – | – | – | – | –
72 | FNICQAVTANVNALL | 6% | 220 | 220 | – | – | – | – | –
73 | ASRELKVTFFPDLNG | 15% | 162 | 324 | – | – | – | – | –
74 | QKKQQTVTLLPAADL | 7% | 712 | 712 | – | – | – | – | –
75 | PLIELCVDEAGSKSP | 18% | 171 | 341 | – | – | – | – | –
76 | NLVRDLPQGFSALEP | 27% | 607 | 1822 | – | – | – | – | –
